Data taken from patent publication US20040137436A1, “Method for measuring drug resistance” (priority 2000, published 2004).
Read-outs that look alike come from different tables or passages of the source.

Test system: HIV-1
Type: cell-based
Settings: for Geometric Mean Phenotype: fold change in IC50 vs wild type; for Average Phenotype (log): log fold resistance
[1] = RT codon 41 ANY, 184 ANY, 215 ANY
[2] = RT codon 41 WT, 184 V/I, 215 F/Y
[3] = RT codon 41 WT, 184 V/I, 215 WT
[4] = RT codon 41 WT, 184 WT, 215 F/Y

Cc1cn([C@H]2C[C@H](N=[N+]=[N-])[C@@H](CO)O2)c(=O)[nH]c1=O [AZT, zidovudine]
effect of inclusion of the 184V mutation on magnitude of AZT resistance (184V together with AZT resistance mutations, each cluster (FIG. 7)): substantial reduction | Geometric Mean Phenotype [1]: 3.9 fold | Geometric Mean Phenotype (RT codon 41 L, 184 WT, 215 F/Y): 27.7 fold | Geometric Mean Phenotype (RT codon 41 L, 184 WT, 215 WT): 1.7 fold | Geometric Mean Phenotype [2]: 6.2 fold | Geometric Mean Phenotype [3]: 1.3 fold | Geometric Mean Phenotype [4]: 13.4 fold | Geometric Mean Phenotype (RT codon 41 WT, 184 WT, 215 WT): 1.3 fold | mean fold resistance, increase (genetic clusters with multiple mutations conferring AZT resistance (FIG. 7)): ~100 fold | Average Phenotype (log) [1]: 0.59 | Average Phenotype (log) (RT codon 41 L, 184 WT, 215 F/Y): 1.44 | Average Phenotype (log) (RT codon 41 L, 184 WT, 215 WT): 0.24 | Average Phenotype (log) [2]: 0.79 | Average Phenotype (log) [3]: 0.10 | Average Phenotype (log) [4]: 1.13 | Average Phenotype (log) (RT codon 41 WT, 184 WT, 215 WT): 0.12 | susceptibility profile of genetic cluster (virus harbouring the 184V mutation (FIG. 7)): slightly reduced level of susceptibility
